Results as given in patent US10221163B2 (priority 2015, dated 2019).
Where two headings read alike, the source gives them in different places.

Experiments:
[1] = target: NDM-1 (Klebsiella pneumoniae, UniProt C7C422); assay: biochemical; type: biochemical; settings: fluorescence assay, CCF2-FA substrate, 1 pM enzyme, 2 hours at 25° C.; read-out: NDM-1 IC50
Procedure, shortened: (§1)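 IC50 values derive from 4-parameter fits of percent inhibition against inhibitor concentration on semi-log axes. Activity was monitored by fluorescence with the CCF2-FA substrate after a 2-hour, 25° C incubation of compound, enzyme and substrate.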

[2] = target: IMP-1 (Serratia marcescens, UniProt P52699); assay: biochemical; type: biochemical; settings: fluorescence assay, CCF2-FA substrate, 2 pM enzyme, 2 hours at 25° C.; read-out: IMP-1 IC50
Procedure, shortened: as §1

[3] = system: Pseudomonas aeruginosa MB9798 vs MB9799; settings: ratio MITC95 PA_9798/MITC95 PA_9799
Procedure, shortened: (§2)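 P. aeruginosa PAO1-derived IMP-1 strains, efflux+ MB9798 and efflux− MB9799, tested by standard microbroth MIC with imipenem and/or ceftazidime fixed, usually at CLSI breakpoint, plus fixed class A/C β-lactamase inhibitor against AmpC. Inhibitor titrated; concentration restoring susceptibility recorded; MB9798/MB9799 fold difference indicates efflux.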

[4] = system: Pseudomonas aeruginosa efflux+ (MB9798), IMP-1; type: cell-based; settings: concentration restoring susceptibility to imipenem at 2 μg/mL in the presence of a class A, C, D serine β-lactamase inhibitor closely related to relebactam
Procedure, shortened: as §2

[5] = target: VIM-1 (Pseudomonas aeruginosa (strain ATCC 15692 / DSM 22644 / CIP 104116 / JCM 14847 / LMG 12228 / 1C / PRS 101 / PAO1), UniProt A0A0F7KYQ8); assay: biochemical; settings: CCF2-FA substrate, 30 pM enzyme, 2 hours at 25° C.
Procedure, shortened: as §1

[6] = system: Pseudomonas aeruginosa efflux− (MB9799), IMP-1; type: cell-based; settings: concentration restoring susceptibility to imipenem at 2 μg/mL in the presence of a class A, C, D serine β-lactamase inhibitor closely related to relebactam
Procedure, shortened: as §2

[7] = system: Klebsiella pneumoniae expressing VIM-1 (IHMA599644); type: cell-based; settings: VIM-1 strain IHMA599644, with imipenem 1 μg/ml, 95% inhibition of growth
Procedure, shortened: (§3)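 Imipenem 1 μg/ml + inhibitor; MBL-expressing clinical strains in 1.1×CAMHB, inoculum from saline suspension diluted 1:100; 35° C, 22–24 h; absorbance read-out.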

[8] = system: Escherichia coli expressing NDM-1 (CLB30005, CLB30016); type: cell-based; settings: NDM-1 strain, with imipenem 1 μg/ml, 95% inhibition of growth
Procedure, shortened: as §3

[9] = system: Serratia marcescens expressing IMP-1 (CL5741); type: cell-based; settings: IMP-1 strain CL5741, with imipenem 1 μg/ml, 95% inhibition of growth
Procedure, shortened: as §3

[10] = fluorescence assay, read-out: VIM-1 IC50

Chain of NDM-1 (C7C422 whole entry, looked up, species assumed): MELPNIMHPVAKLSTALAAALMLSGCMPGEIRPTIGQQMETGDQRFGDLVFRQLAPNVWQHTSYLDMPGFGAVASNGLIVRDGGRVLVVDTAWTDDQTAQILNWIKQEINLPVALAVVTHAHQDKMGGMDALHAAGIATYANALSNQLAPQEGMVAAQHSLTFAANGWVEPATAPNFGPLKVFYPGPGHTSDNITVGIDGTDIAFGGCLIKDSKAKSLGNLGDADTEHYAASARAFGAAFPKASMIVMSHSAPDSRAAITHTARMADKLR
Chain of IMP-1 (P52699 whole entry, looked up, species assumed): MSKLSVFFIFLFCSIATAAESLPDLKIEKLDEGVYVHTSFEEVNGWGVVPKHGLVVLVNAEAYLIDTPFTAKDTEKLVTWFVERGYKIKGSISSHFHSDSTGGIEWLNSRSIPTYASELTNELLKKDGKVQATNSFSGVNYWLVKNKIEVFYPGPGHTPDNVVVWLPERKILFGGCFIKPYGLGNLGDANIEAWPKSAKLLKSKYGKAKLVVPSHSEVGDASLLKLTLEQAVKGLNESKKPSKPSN

SMILES	IC50 [1] [nM]	IC50 [2] [nM]	Efflux ratio [3]	P. aeruginosa expressing IMP-1, efflux + (MB9798) MITC95 [4] [µM]	IC50 ([5]; VIM-1 IC50, fluorescence assay) [nM]	P. aeruginosa expressing IMP-1, efflux − (MB9799) MITC95 [6] [µM]	Klebsiella pneumoniae MITC95 [7] [µM]	Escherichia coli MITC95 [8] [µM]	Serratia marcescens MITC95 [9] [µM]	IC50 [5, 10] [nM]
Nc1nc(-c2cccc(-c3ccc(S(=O)(=O)N[C@H]4CNC[C@H]4N)c(S(N)(=O)=O)c3-c3nn[nH]n3)c2)c[nH]1 [Example 327, 3′-(2-amino-1H-imidazol-4-yl)-N4-((3S,4R)-4-aminopyrrolidin-3-yl)-2-(2H-tetrazol-5-yl)-[1,1′-biphenyl]-3,4-disulfonamide]	0.259	1.41	2.00	1.563	0.649	0.7813	1.563	3.125	3.125	
N[C@@H]1CNC[C@@H]1NS(=O)(=O)c1ccc(-c2cccn3ccnc23)c(-c2nn[nH]n2)c1S(N)(=O)=O [Example 328, N1-((3S,4R)-4-aminopyrrolidin-3-yl)-4-(imidazo[1,2-a]pyridin-8-yl)-3-(2H-tetrazol-5-yl)benzene-1,2-disulfonamide]	0.14	0.34	1.00	1.563	0.165	1.563	3.125	0.7813	1.563	
Cc1ccc(-c2ccc(S(=O)(=O)NCCN)c(S(N)(=O)=O)c2-c2nn[nH]n2)c2nc(N)[nH]c12 [Example 329, 4-(2-Amino-7-methyl-1H-benzo[d]imidazol-4-yl)-N1-(2-aminoethyl)-3-(2H-tetrazol-5-yl)benzene-1,2-disulfonamide]	0.0153	0.128	2.00	1.563		0.7813	1.563	1.563	1.563	0.043
NCCNS(=O)(=O)c1ccc(-c2cccc3[nH]c([C@H](N)CO)nc23)c(-c2nn[nH]n2)c1S(N)(=O)=O [Example 330, (S)-4-(2-(1-amino-2-hydroxyethyl)-1H-benzo[d]imidazol-4-yl)-N1-(2-aminoethyl)-3-(2H-tetrazol-5-yl)benzene-1,2-disulfonamide]	0.294	2.76	1.00	1.563	0.308	1.563	3.125	3.125	1.563	
NCCNS(=O)(=O)c1ccc(-c2cccc3[nH]c([C@@H](N)CO)nc23)c(-c2nn[nH]n2)c1S(N)(=O)=O [Example 331, (R)-4-(2-(1-amino-2-hydroxyethyl)-1H-benzo[d]imidazol-4-yl)-N1-(2-aminoethyl)-3-(2H-tetrazol-5-yl)benzene-1,2-disulfonamide]	0.228	2.28	1.00	1.563	0.18	1.563	3.125	1.563	3.125	
NCCNS(=O)(=O)c1ccc(-c2cccc(C(=O)NC[C@@H](N)CO)c2N)c(-c2nn[nH]n2)c1S(N)(=O)=O [Example 332]	0.661	3	1.00	1.563		1.563	3.125	1.563	1.563	0.23
NCCNS(=O)(=O)c1ccc(-c2cccc(C(=O)NC[C@H](N)CO)c2N)c(-c2nn[nH]n2)c1S(N)(=O)=O [Example 333, (S)-2-amino-N-(2-amino-3-hydroxypropyl)-4′-(N-(2-aminoethyl)sulfamoyl)-3′-sulfamoyl-2′-(2H-tetrazol-5-yl)-[1,1′-biphenyl]-3-carboxamide]	1.01	3.21	1.00	1.563		1.563	3.125	1.563	1.563	0.472
NCCNC(=O)c1cccc(-c2ccc(S(=O)(=O)NCCN)c(S(N)(=O)=O)c2-c2nn[nH]n2)c1 [Example 334, N-(2-aminoethyl)-4′-(N-(2-aminoethyl)sulfamoyl)-3′-sulfamoyl-2′-(2H -tetrazol-5-yl)-[1,1′-biphenyl]-3-carboxamide]	1.32	4.6	2.00	1.563		0.7813	0.7813	0.3906	0.7813	0.247
NCCNS(=O)(=O)c1ccc(-c2cccc3[nH]c([C@H](N)CN)nc23)c(-c2nn[nH]n2)c1S(N)(=O)=O [Example 335, (R)—N1-(2-aminoethyl)-4-(2-(1,2-diaminoethyl)-1H-benzo[d]imidazole-4-yl)-3-(2H-tetrazol-5-yl)benzene-1,2-disulfonamide]	0.459	4.78	2.00	3.125		1.563	3.125	1.563	3.125	0.287
NCCNS(=O)(=O)c1ccc(-c2cccc3[nH]c([C@@H](N)CN)nc23)c(-c2nn[nH]n2)c1S(N)(=O)=O [Example 336, (S)—N1-(2-aminoethyl)-4-(2-(1,2-diaminoethyl)-1H-benzo[d]imidazol-4-yl)-3-(2H-tetrazol-5-yl)benzene-1,2-disulfonamide]	0.325	2.9	2.00	3.125		1.563	3.125	1.563	3.125	0.233
NCCNS(=O)(=O)c1ccc(-c2cccc3[nH]c(CCN)nc23)c(-c2nn[nH]n2)c1S(N)(=O)=O [Example 337, N1-(2-aminoethyl)-4-(2-(2-aminoethyl)-1H-benzo[d]imidazol-4-yl)-3-(2H-tetrazol-5-yl)benzene-1,2-disulfonamide]	0.208	2.23	2.00	0.7813		0.3906	0.7813	0.7813	0.7813	0.2
NCCNS(=O)(=O)c1ccc(C2=CC(N)CCC2)c(-c2nn[nH]n2)c1S(N)(=O)=O (stereo not drawn) [Example 338, 5′-Amino-N4-(2-aminoethyl)-2-(2H-tetrazol-5-yl)-2′,3′,4′,5′-tetrahydro-[1,1′-biphenyl]-3,4-disulfonamide]	37.6	91	4.00	6.25		1.563	1.563	1.563	1.563	6.42
N[C@H]1C=C(c2ccc(S(=O)(=O)N[C@@H]3CCNC3)c(S(N)(=O)=O)c2-c2nn[nH]n2)CCC1 [Example 339, (R)-5′-amino-N4-((R)-pyrrolidin-3-yl)-2-(2H-tetrazol-5-yl)-2′,3′,4′,5′-tetrahydro-[1,1′-biphenyl]-3,4-disulfonamide]	11.9	34.1	4.00	6.25	2.1	1.563	0.7813	0.7813	1.563	
